According to US11046686B2, “Thiadiazole IRAK4 compounds” (Gilead Sciences, Inc., priority 2018, dated 2021):
Like-named read-outs stand apart in the source and are kept apart here.

Tests used:
[1] = tested on: TNFα; test: IRAK4 Monocyte TNFα Cell Based Assay; design: species or system human; conditions: read-out: EC50 MONO TNF HTRF
Procedure, shortened: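 TNFα release quantified by HTRF (cryptate/XL665 antibody pair, overnight at RT) after 1 h compound pre-incubation (0.1% DMSO) and 4 h LPS challenge at 50 pg/ml, 37 °C, 5,000 monocytes per well. Signal ratio normalised between unstimulated (0%) and stimulated (100%) controls.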

[2] = target: IRAK4 enzyme (Homo sapiens (Human), UniProt Q9NWZ3); test: IRAK4 Biochemical Assay (TR-FRET, STK1 KinEASE)
Procedure: IRAK4 enzyme (Carna Biosciences, Chuo-ku, Kobe, Japan) activity was measured by detecting phosphorylated peptide substrate formation using an antibody against the phosphorylated peptide substrate. This is a time-resolved fluorescence resonance energy transfer (TR-FRET) immunoassay, based on the STK1 KinEASE Assay (Cisbio, Bedford, Mass.). The assay was designed as a simple two-step, endpoint assay (a 5 μl enzyme reaction followed by 5 μl stop and detect Solution) performed in ProxiPlate-384 Plus plates (Perkin Elmer, Waltham, Mass.). […] Compounds diluted in DMSO were spotted into 384 well plates using a Labcyte® Echo 550 Liquid Handling System prior to addition of IRAK4 enzyme and peptide substrate. Reaction solutions were delivered using a Multi-Flo (Bio-Tek Instruments). The enzyme and peptide solution was incubated with compound for 15 minutes at room temp before the reaction was initiated by the addition of ATP. The standard 5 μl reaction mixture contained 500 μM ATP, […] peptide (STK1 Peptide), 0.75 nM of IRAK4 in reaction buffer (50 mM HEPES, pH 7.0, 0.02% NaN3, 0.01% BSA, 0.1 mM Orthovanadate, 5 mM […], 0.025% NP-40, 1 mM DTT). After 120 min of incubation at room temperature, 5 μl of Stop and Detect Solution (1:100 Cryptate labeled anti-phosphorylated peptide antibody solution and 125 nM Tracer in a 50 mM HEPES pH 7.0 detection buffer containing sufficient EDTA) was added. The plate was then further incubated for 60 minutes at room temperature and read on Envision 2103 Multilabeled reader (PerkinElmer) with excitation/emission/FRET emission at 340 nm/615 nm665 nm, respectively. Fluorescence intensities at 615 nm and 665 nm emission wavelengths were expressed as aratio (665 nm/615 nm). Percentage of inhibition was calculated as below: % Inhibition=100×(Ratiosample−Ratio0% Inhibition)/(Ratio100% Inhibition−Ratio0% Inhibition)
The 0% inhibition value comes from control wells lacking inhibitor.

[3] = Homo sapiens, Monocyte, human monocytes, second part of Table 2, compounds 33-343, unit inferred

IRAK4 enzyme, sequence (Q9NWZ3 whole entry): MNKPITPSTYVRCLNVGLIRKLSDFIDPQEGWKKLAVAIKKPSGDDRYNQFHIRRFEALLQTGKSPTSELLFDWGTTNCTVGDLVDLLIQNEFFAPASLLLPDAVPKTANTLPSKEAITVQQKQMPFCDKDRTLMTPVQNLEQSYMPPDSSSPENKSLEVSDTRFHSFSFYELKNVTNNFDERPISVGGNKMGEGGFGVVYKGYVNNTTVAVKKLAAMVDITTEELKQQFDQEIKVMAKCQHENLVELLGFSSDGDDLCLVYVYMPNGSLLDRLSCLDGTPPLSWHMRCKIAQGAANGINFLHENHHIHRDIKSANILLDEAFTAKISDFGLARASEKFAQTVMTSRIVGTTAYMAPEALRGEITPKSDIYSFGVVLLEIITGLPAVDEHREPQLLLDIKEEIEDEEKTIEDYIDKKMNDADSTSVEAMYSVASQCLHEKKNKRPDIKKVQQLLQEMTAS

SMILES	EC50 [1, 3] [nM]	IC50 [2] [nM]	EC50 ([1]; human monocytes, second part of Table 2, compounds 33-343, unit inferred) [nM]	IC50 ([2]; second part of Table 2, compounds 33-343, unit inferred, read-out: IC50 IRAK4-HTBS) [nM]	EC50 ([1]; Homo sapiens, Monocyte) [nM]
CC(C)Nc1cc(-c2ccc3cc(C#N)cnn23)ncc1-c1nnc(N2C[C@H]3C[C@@H]2CO3)s1 [Compound 237, 7-(5-(5-((1R,4R)-2-oxa-5-azabicyclo[2.2.1]heptan-5-yl)-1,3,4-thiadiazol-2-yl)-4-(isopropylamino)pyridin-2-yl)pyrrolo[1,2-b]pyridazine-3-carbonitrile]	8.4	0.14			
CC(C)Nc1cc(-c2ccc3cc(C#N)cnn23)ncc1-c1nnc(N2C[C@@H]3C[C@H]2CO3)s1 [Compound 238, 7-(5-(5-((1S,4S)-2-oxa-5-azabicyclo[2.2.1]heptan-5-yl)-1,3,4-thiadiazol-2-yl)-4-(isopropylamino)pyridin-2-yl)pyrrolo[1,2-b]pyridazine-3-carbonitrile]	12.6	0.46			
CC(=O)N[C@H]1CC[C@H](c2nnc(-c3cnc(-c4ccc5cc(C#N)cnn45)cc3N[C@H]3CC[C@@H](O)CC3)s2)CC1 [Compound 244, N-((1R,4r)-4-(5-(6-(3-cyanopyrrolo[1,2-b]pyridazin-7-yl)-4-(((1s,4S)-4-hydroxycyclohexyl)amino)pyridin-3-yl)-1,3,4-thiadiazol-2-yl)cyclohexyl)acetamide]			9.1	0.93	
CC(=O)NC12CC(c3nnc(-c4cnc(-c5ccc6cc(C#N)cnn56)cc4NC(C)C)s3)(C1)C2 [Compound 246, N-(3-(5-(6-(3-cyanopyrrolo[1,2-b]pyridazin-7-yl)-4-(isopropylamino)pyridin-3-yl)-1,3,4-thiadiazol-2-yl)bicyclo[1.1.1]pentan-1-yl)acetamide]	43.3	1.37			
CC(=O)N[C@H]1CC[C@H](c2nnc(-c3cnc(-c4ccc5cc(C#N)cnn45)cc3NC(C)C)s2)C1 [Compound 247, N-((1S,3S)-3-(5-(6-(3-cyanopyrrolo[1,2-b]pyridazin-7-yl)-4-(isopropylamino)pyridin-3-yl)-1,3,4-thiadiazol-2-yl)cyclopentyl)acetamide]	25.1	0.8			
CC(=O)N[C@@H]1CC[C@H](c2nnc(-c3cnc(-c4ccc5cc(C#N)cnn45)cc3NC(C)C)s2)C1 [Compound 248, N-((1R,3S)-3-(5-(6-(3-cyanopyrrolo[1,2-b]pyridazin-7-yl)-4-(isopropylamino)pyridin-3-yl)-1,3,4-thiadiazol-2-yl)cyclopentyl)acetamide]	16.3	0.93			
CC(=O)NC1CCN(c2nnc(-c3cnc(-c4ccc5cc(C#N)cnn45)cc3NC(C)C)s2)[C@@H](C)C1 (stereo partly drawn) [Compound 249, N-((2S)-1-(5-(6-(3-cyanopyrrolo[1,2-b]pyridazin-7-yl)-4-(isopropylamino)pyridin-3-yl)-1,3,4-thiadiazol-2-yl)-2-methylpiperidin-4-yl)acetamide]	8.9	0.91			
CC(=O)N[C@@H]1CCN(c2nnc(-c3cnc(-c4ccc5cc(C#N)cnn45)cc3NC(C)C)s2)C[C@@H]1F [Compound 250, N-((3S,4R)-1-(5-(6-(3-cyanopyrrolo[1,2-b]pyridazin-7-yl)-4-(isopropylamino)pyridin-3-yl)-1,3,4-thiadiazol-2-yl)-3-fluoropiperidin-4-yl)acetamide]	8.3	1.17			
CC(=O)NC1CCN(c2nnc(-c3cnc(-c4ccc5cc(C#N)cnn45)cc3NC(C)C)s2)CC1(F)F (stereo not drawn) [Compound 251, N-(1-(5-(6-(3-cyanopyrrolo[1,2-b]pyridazin-7-yl)-4-(isopropylamino)pyridin-3-yl)-1,3,4-thiadiazol-2-yl)-3,3-difluoropiperidin-4-yl)acetamide]	4.4	0.48			
CC(C)Nc1cc(-c2ccc3cc(C#N)cnn23)ncc1-c1nnc(N2CC3(COC3)C2)s1 [Compound 252, 7-(5-(5-(2-oxa-6-azaspiro[3.3]heptan-6-yl)-1,3,4-thiadiazol-2-yl)-4-(isopropylamino)pyridin-2-yl)pyrrolo[1,2-b]pyridazine-3-carbonitrile]	7	0.29			
N#Cc1cnn2c(-c3cc(NC4CCOCC4)c(-c4nnc(N5CC6CCC(C5)O6)s4)cn3)ccc2c1 [Compound 256, 7-(5-(5-(8-oxa-3-azabicyclo[3.2.1]octan-3-yl)-1,3,4-thiadiazol-2-yl)-4-((tetrahydro-2H-pyran-4-yl)amino)pyridin-2-yl)pyrrolo[1,2-b]pyridazine-3-carbonitrile]	4.6	0.68			
CC(C)Nc1cc(-c2ccc3cc(C#N)cnn23)ncc1-c1nnc(N2CCS(=O)(=O)CC2)s1 [Compound 257, 7-(5-(5-(1,1-dioxidothiomorpholino)-1,3,4-thiadiazol-2-yl)-4-(isopropylamino)pyridin-2-yl)pyrrolo[1,2-b]pyridazine-3-carbonitrile]	10000	0.95			
CC(=O)N1C2CCC1CN(c1nnc(-c3cnc(-c4ccc5cc(C#N)cnn45)cc3NC(C)C)s1)C2 [Compound 259, 7-(5-(5-(8-acetyl-3,8-diazabicyclo[3.2.1]octan-3-yl)-1,3,4-thiadiazol-2-yl)-4-(isopropylamino)pyridin-2-yl)pyrrolo[1,2-b]pyridazine-3-carbonitrile]		0.94			2.6
CC(C)Nc1cc(-c2ccc3cc(C#N)cnn23)ncc1-c1nnc(N2CC3CCC(C2)N3C(=O)C2CC2)s1 [Compound 263, 7-(5-(5-(8-(cyclopropanecarbonyl)-3,8-diazabicyclo[3.2.1]octan-3-yl)-1,3,4-thiadiazol-2-yl)-4-(isopropylamino)pyridin-2-yl)pyrrolo[1,2-b]pyridazine-3-carbonitrile]		1.08			5.1
CC(=O)N1[C@@H]2COC[C@H]1CN(c1nnc(-c3cnc(-c4ccc5cc(C#N)cnn45)cc3NC(C)C)s1)C2 [Compound 265, 7-(5-(5-((1R,5S)-9-acetyl-3-oxa-7,9-diazabicyclo[3.3.1]nonan-7-yl)-1,3,4-thiadiazol-2-yl)-4-(isopropylamino)pyridin-2-yl)pyrrolo[1,2-b]pyridazine-3-carbonitrile]		2.43			11.3
CC(=O)N1CCN(c2nnc(-c3cnc(-c4ccc5cc(C#N)cnn45)cc3NC(C)C)s2)C2CC21 (stereo not drawn) [Compound 267, 7-(5-(5-(5-acetyl-2,5-diazabicyclo[4.1.0]heptan-2-yl)-1,3,4-thiadiazol-2-yl)-4-(isopropylamino)pyridin-2-yl)pyrrolo[1,2-b]pyridazine-3-carbonitrile]	18.9	0.65			
CC(=O)NC12CC(c3nnc(-c4cnc(-c5ccc6cc(C#N)cnn56)cc4NC4CCOCC4)s3)(C1)C2 [Compound 270, N-(3-(5-(6-(3-cyanopyrrolo[1,2-b]pyridazin-7-yl)-4-((tetrahydro-2H-pyran-4-yl)amino)pyridin-3-yl)-1,3,4-thiadiazol-2-yl)bicyclo[1.1.1]pentan-1-yl)acetamide]	10.7	0.65			
CC(C)Nc1cc(-c2ccc3cc(C#N)cnn23)ncc1-c1nnc(N2CC3CC(C2)N3C(=O)OC(C)(C)C)s1 [Compound 271, tert-butyl 3-(5-(6-(3-cyanopyrrolo[1,2-b]pyridazin-7-yl)-4-(isopropylamino)pyridin-3-yl)-1,3,4-thiadiazol-2-yl)-3,6-diazabicyclo[3.1.1]heptane-6-carboxylate]		3.22			89
CC(C)Nc1cc(-c2ccc3cc(C#N)cnn23)ncc1-c1nnc(N2CC3CC(C2)N3C(=O)C(C)(C)O)s1 [Compound 273, 7-(5-(5-(6-(2-hydroxy-2-methylpropanoyl)-3,6-diazabicyclo[3.1.1]heptan-3-yl)-1,3,4-thiadiazol-2-yl)-4-(isopropylamino)pyridin-2-yl)pyrrolo[1,2-b]pyridazine-3-carbonitrile]		0.68			4.1
CC(C)Nc1cc(-c2ccc3cc(C#N)cnn23)ncc1-c1nnc(N2C3CNCC2C3)s1 [Compound 274, 7-(5-(5-(3,6-diazabicyclo[3.1.1]heptan-6-yl)-1,3,4-thiadiazol-2-yl)-4-(isopropylamino)pyridin-2-yl)pyrrolo[1,2-b]pyridazine-3-carbonitrile]		1.59			41
CC(C)Nc1cc(-c2ccc3cc(C#N)cnn23)ncc1-c1nnc(N2C3CC2CN(C(=O)C(C)(C)O)C3)s1 [Compound 275, 7-(5-(5-(3-(2-hydroxy-2-methylpropanoyl)-3,6-diazabicyclo[3.1.1]heptan-6-yl)-1,3,4-thiadiazol-2-yl)-4-(isopropylamino)pyridin-2-yl)pyrrolo[1,2-b]pyridazine-3-carbonitrile]	6.4	0.78			
